Measurements from patent publication US8546428B2 (priority 2006, dated 2013).

Columns and labels:
[1] = hygroscopicity of the salt; type: physicochemical
[2] = in vivo, po

SMILES: COc1nc2ccc(Br)cc2cc1[C@@H](c1ccccc1)[C@@](O)(CCN(C)C)c1cccc2ccccc12.O=C(O)/C=C/C(=O)O [Present fumarate salt, (alpha S, beta R)-6-bromo-alpha-[2-(dimethylamino)ethyl]-2-methoxy-alpha-1-naphthalenyl-beta-phenyl-3-quinolineethanol (2E)-2-butenedioate (1:1)]
- hygroscopicity [1]: non-hygroscopic
- bioavailability, fed subjects compared to fasted subjects [2]: higher bioavailability
